According to patent US11731944B2, “SARS-CoV-2 inhibitors for treating coronavirus infections” (priority 2021, dated 2023):
pIC50: −log10 of the molar value. Where two headings read alike, the source gives them in different places.

Target: SARS-CoV-2 MPRO (Severe acute respiratory syndrome coronavirus 2 (2019-nCoV) (SARS-CoV-2), UniProt P0DTD1)
Test: SARS-CoV-2 Mpro enzymatic assay (FRET substrate cleavage)
Format: biochemical
Conditions: 30 min pre-incubation at RT, 60 min at 30° C., 10 doses from 25 μM
[1] = C-His6-tagged SARS-CoV-2 MPRO 25 nM, read-out: M pro IC50
[2] = M pro IC50, C-His6-tagged SARS-CoV-2 MPRO 25 nM

SMILES	pIC50 [1]	pIC50 [2]
C[C@](C(=O)NC1CCOC1)(c1cncnc1)N(C(=O)[C@H](F)Cl)c1ccc(OC(F)(F)F)cc1 (single isomer, unassigned) [Example 6a]	> 7.00	
C[C@](C(=O)NC1CCOC1)(c1cncnc1)N(C(=O)[C@H](F)Cl)c1ccc(OC(F)(F)F)cc1 (single isomer, unassigned) [Example 6b]	> 7.00	
C[C@@](C(=O)NC1CCOC1)(c1cncnc1)N(C(=O)[C@H](F)Cl)c1ccc(OC(F)(F)F)cc1 (single isomer, unassigned) [Example 6c]	5.00 to 6.00	
C[C@@](C(=O)NC1CCOC1)(c1cncnc1)N(C(=O)[C@H](F)Cl)c1ccc(OC(F)(F)F)cc1 (single isomer, unassigned) [Example 6d]	< 5.00	
Cn1ccc([C@@](C)(C(=O)NC2CCC(F)(F)CC2)N(C(=O)[C@H](F)Cl)c2ccc(OC(F)(F)F)cc2)cc1=O (single isomer, unassigned) [Example 13b]		< 5.00
C[C@](C(=O)NC1CCC(F)(F)CC1)(c1cncnc1)N(C(=O)[C@H](F)Cl)c1ccc(SC(F)(F)F)cc1 (single isomer, unassigned) [Example 33a]		> 7.00
CC1(C)COCC[C@H]1NC(=O)[C@](C)(c1cncnc1)N(C(=O)[C@H](F)Cl)c1ccc(OC(F)(F)F)cc1 (single isomer, unassigned) [Example 76c]		< 5.00
CC1(C)COCC[C@@H]1NC(=O)[C@](C)(c1cncnc1)N(C(=O)[C@H](F)Cl)c1ccc(OC(F)(F)F)cc1 (single isomer, unassigned) [Example 76d]		< 5.00
CC1(C)C[C@H](NC(=O)[C@@](C)(c2cncnc2)N(C(=O)[C@H](F)Cl)c2ccc(OC(F)(F)F)cc2)CCO1 (single isomer, unassigned) [Example 77a]	> 7.00	
CC1(C)C[C@H](NC(=O)[C@](C)(c2cncnc2)N(C(=O)[C@H](F)Cl)c2ccc(OC(F)(F)F)cc2)CCO1 (single isomer, unassigned) [Example 77c]		5.00 to 6.00
CC1(C)C[C@@H](NC(=O)[C@](C)(c2cncnc2)N(C(=O)[C@H](F)Cl)c2ccc(OC(F)(F)F)cc2)CCO1 (single isomer, unassigned) [Example 77d]		< 5.00
C[C@@](C(=O)NC1CCC2(CC1)COC2)(c1cncnc1)N(C(=O)[C@H](F)Cl)c1ccc(OC(F)(F)F)cc1 (single isomer, unassigned) [Example 107b]		< 5.00
CC(C(=O)N[C@H]1CC[C@H](OC(F)(F)F)CC1)(c1cncnc1)N(C(=O)[C@H](F)Cl)c1ccc(OC(F)(F)F)cc1 (stereo in doubt) [Example 8]		> 7.00
C[C@@](C(=O)NC1CCC(F)(F)CC1)(c1cncnc1)N(C(=O)[C@H](F)Cl)c1ccc(-c2cncs2)cc1 [Example 1b]	5.00 to 6.00	
C[C@](C(=O)NC1CCC(F)(F)CC1)(c1cncnc1)N(C(=O)[C@H](F)Cl)c1ccc(-c2ccno2)cc1 [Example 2a]	> 7.00	
C[C@@](C(=O)NC1CCC(F)(F)CC1)(c1cncnc1)N(C(=O)[C@H](F)Cl)c1ccc(-c2ccno2)cc1 [Example 2b]	5.00 to 6.00	
[2H][C@](C(=O)NC1CCC(F)(F)CC1)(c1cncnc1)N(C(=O)[C@H](F)Cl)c1ccc(OC(F)(F)F)cc1 [Example 3a]	> 7.00	
[2H][C@@](C(=O)NC1CCC(F)(F)CC1)(c1cncnc1)N(C(=O)[C@H](F)Cl)c1ccc(OC(F)(F)F)cc1 [Example 3b]	< 5.00	
C[C@](C(=O)NC1CCC(F)(F)CC1)(c1cncnc1)N(C(=O)[C@H](F)Cl)c1ccc(OC(F)(F)F)cc1 [Example 4a]	> 7.00	
C[C@@](C(=O)NC1CCC(F)(F)CC1)(c1cncnc1)N(C(=O)[C@H](F)Cl)c1ccc(OC(F)(F)F)cc1 [Example 4b]	5.00 to 6.00	
C[C@](C(=O)NC1CCOCC1)(c1cncnc1)N(C(=O)[C@H](F)Cl)c1ccc(OC(F)(F)F)cc1 [Example 5a]	> 7.00	
C[C@@](C(=O)NC1CCOCC1)(c1cncnc1)N(C(=O)[C@H](F)Cl)c1ccc(OC(F)(F)F)cc1 [Example 5b]	5.00 to 6.00	
